The record followed here is US9745291B2, “PRMT5 inhibitors containing a dihydro- or tetrahydroisoquinoline and uses thereof” (Epizyme, Inc., priority 2012, dated 2017).

This assay has as its target PRMT5/MEP50 (Homo sapiens (Human), UniProt O14744). In words: PRMT5 Biochemical Assay (PRMT5/MEP50 enzyme assay on peptide substrate, 3H-SAM Flashplate). The conditions noted are these: PRMT5 biochemical assay; read-out: Biochemical IC50. The text has this: S-adenosylmethionine (SAM), S-adenosylhomocysteine (SAH), bicine, KCl, Tween20, dimethylsulfoxide (DMSO), bovine skin gelatin (BSG), and Tris(2-carboxyethyl)phosphine hydrochloride solution (TCEP) were purchased from Sigma-Aldrich at the highest level of purity possible. ^3H-SAM was purchase from American Radiolabeled Chemicals with a specific activity of 80 Ci/mmol. 384-well streptavidin Flashplates were purchased from PerkinElmer.
Peptide representative of human histone H4 residues 1-15 was synthesized with a C-terminal linker-affinity tag motif and a C-terminal amide cap by 21st Century Biochemicals. […] The sequence was Ac-[…][K-Biot]-amide (SEQ ID NO.:3).
Full-length human MEP50 (NM_024102) clone was amplified from a human testis cDNA library incorporating a 5′ sequence encoding a 6-histidine tag (MHHHHHH)(SEQ ID NO.:5) fused directly to Arg 2 of MEP50. The amplified genes were sublconed into pENTR/D/TEV (Life Technologies) and subsequently transferred by Gateway™ attL×attR recombination to pDEST8 baculvirus expression vector (Life Technologies).
Recombinant baculovirus and Baculovirus-Infected Insect Cells (BIIC) were generated according to Bac-to-Bac kit instructions (Life Technologies) and Wasilko, 2006, respectively. Protein over-expression was accomplished by infecting exponentially growing Spodoptera frugiperda (SF9) cell culture at 1.2×10^6 cell/ml with a 5000 fold dilution of BIIC stock. Infections were carried out at 27° C. for 72 hours, harvested by centrifugation, and stored at −80° C. for purification.
Flag-PRMT5/6His-MeP50 was eluted with 300 mM Imidazole in the same buffer. […] Reference: Wasilko, D. J. and S. E. Lee: “TIPS: titerless infected-cells preservation and scale-up” Bioprocess J., 5 (2006), pp. 29-32.
General Procedure for PRMT5/MEP50 Enzyme Assays on Peptide Substrates.
The assays were all performed in a buffer consisting of 20 mM Bicine (pH=7.6), 1 mM TCEP, 0.005% BSG, and 0.002% Tween20, prepared on the day of use. Compounds in 100% DMSO (1 ul) were spotted into a polypropylene 384-well V-bottom plates (Greiner) using a Platemate Plus outfitted with a 384-channel head (Thermo Scientific). DMSO (1 ul) was added to Columns 11, 12, 23, 24, rows A-H for the maximum signal control and 1 ul of SAH, a known product and inhibitor of PRMT5/MEP50, was added to columns 11, 12, 23, 24, rows I-P for the minimum signal control. A cocktail (40 ul) containing the PRMT5/MEP50 enzyme and the peptide was added by Multidrop Combi (Thermo-Fisher). The compounds were allowed to incubate with PRMT5/MEP50 for 30 min at 25 degrees Celsius, then a cocktail (10 ul) containing ^3H-SAM was added to initiate the reaction (final volume=51 ul).

PRMT5/MEP50, sequence (O14744 other isoform, or with tags, fused parts or gaps): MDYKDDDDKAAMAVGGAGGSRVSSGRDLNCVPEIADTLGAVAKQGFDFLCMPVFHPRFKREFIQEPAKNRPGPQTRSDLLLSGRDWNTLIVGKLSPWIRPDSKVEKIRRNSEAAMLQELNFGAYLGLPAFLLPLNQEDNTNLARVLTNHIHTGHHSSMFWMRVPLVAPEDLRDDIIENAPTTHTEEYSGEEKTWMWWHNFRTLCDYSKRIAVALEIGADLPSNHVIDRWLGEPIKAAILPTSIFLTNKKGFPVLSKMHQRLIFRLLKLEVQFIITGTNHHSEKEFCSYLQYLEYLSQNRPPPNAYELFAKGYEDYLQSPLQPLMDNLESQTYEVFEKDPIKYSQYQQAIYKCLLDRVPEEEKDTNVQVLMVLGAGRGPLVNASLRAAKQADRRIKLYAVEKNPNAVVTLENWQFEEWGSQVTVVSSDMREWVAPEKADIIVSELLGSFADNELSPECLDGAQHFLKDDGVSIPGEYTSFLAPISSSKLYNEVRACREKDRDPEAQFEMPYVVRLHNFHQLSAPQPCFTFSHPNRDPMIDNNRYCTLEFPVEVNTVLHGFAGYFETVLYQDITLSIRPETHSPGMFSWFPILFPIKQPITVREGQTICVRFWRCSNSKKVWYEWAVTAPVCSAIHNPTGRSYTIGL
PRMT5/MEP50, sequence (Q9BQA1 other isoform, or with tags, fused parts or gaps partner): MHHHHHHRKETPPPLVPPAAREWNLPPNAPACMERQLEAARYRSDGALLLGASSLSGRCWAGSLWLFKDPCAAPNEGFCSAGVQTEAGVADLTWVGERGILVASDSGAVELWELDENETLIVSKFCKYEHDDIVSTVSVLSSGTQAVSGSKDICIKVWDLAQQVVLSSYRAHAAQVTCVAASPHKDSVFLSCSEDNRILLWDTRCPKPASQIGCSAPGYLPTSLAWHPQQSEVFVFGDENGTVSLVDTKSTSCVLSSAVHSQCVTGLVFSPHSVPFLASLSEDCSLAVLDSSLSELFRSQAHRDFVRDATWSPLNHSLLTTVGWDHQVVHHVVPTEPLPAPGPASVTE

As for `O=C(COc1cccc2c1CCCN2Cc1ccccc1)NCC(O)CN1CCc2ccccc2C1` (stereo not shown) [Compound 4], the IC50 was less than 100 nM.

Consider `CC(Oc1ccccc1)C(=O)NCC(O)CN1CCc2ccccc2C1` (stereo not shown) [Compound 19, N-(3-(3,4-dihydroisoquinolin-2(1H)-yl)-2-hydroxypropyl)-2-phenoxypropanamide], for which the IC50 is less than 100 nM.

Regarding `COc1cccc(OCC(=O)NCC(O)CN2CCc3ccccc3C2)c1` (stereo not shown) [Compound 20, N-(3-(3,4-dihydroisoquinolin-2(1H)-yl)-2-hydroxypropyl)-2-(3-methoxyphenoxy)acetamide], the IC50 is less than 100 nM.

With `COc1ccccc1OCC(=O)NCC(O)CN1CCc2ccccc2C1` (stereo not shown) [Compound 22], the IC50 is less than 100 nM.

As for `Cn1ncc2ccc(OCC(=O)NCC(O)CN3CCc4ccccc4C3)cc21` (stereo not shown) [Compound 23, N-(3-(3,4-dihydroisoquinolin-2(1H)-yl)-2-hydroxypropyl)-2-((1-methyl-1H-indazol-6-yl)oxy)acetamide], the IC50 was less than 100 nM.

Consider `Cc1cccc(OCC(=O)NCC(O)CN2CCc3ccccc3C2)c1` (stereo not shown) [Compound 26], for which the IC50 is less than 100 nM.

With `CN(C)c1cccc(OCC(=O)NCC(O)CN2CCc3ccccc3C2)c1` (stereo not shown) [Compound 27], the IC50 was less than 100 nM.

On to `CS(=O)(=O)Nc1cccc(OCC(=O)NCC(O)CN2CCc3ccccc3C2)c1` (stereo not shown) [Compound 28, N-(3-(3,4-dihydroisoquinolin-2(1H)-yl)-2-hydroxypropyl)-2-(3-(methylsulfonamido)phenoxy)acetamide], for which the IC50 was less than 100 nM.

With `CS(=O)(=O)c1ccccc1OCC(=O)NCC(O)CN1CCc2ccccc2C1` (stereo not shown) [Compound 37, N-(3-(3,4-dihydroisoquinolin-2(1H)-yl)-2-hydroxypropyl)-2-(2-(methylsulfonyl)phenoxy)acetamide], the IC50 is less than 100 nM.

`CN(C)c1ccccc1OCC(=O)NCC(O)CN1CCc2ccccc2C1` (stereo not shown) [Compound 38]: the IC50 was less than 100 nM.

For the compound `CC(Oc1cccc2cccnc12)C(=O)NCC(O)CN1CCc2ccccc2C1` (stereo not shown) [Compound 39, N-(3-(3,4-dihydroisoquinolin-2(1H)-yl)-2-hydroxypropyl)-2-(quinolin-8-yloxy)propanamide], the IC50 is less than 100 nM.

Take `O=C(COc1ccccc1C1CCCCC1)NCC(O)CN1CCc2ccccc2C1` (stereo not shown) [Compound 40]: the IC50 is less than 100 nM.

As to `CC(C)(Oc1cccc2cccnc12)C(=O)NCC(O)CN1CCc2ccccc2C1` (stereo not shown) [Compound 43, N-(3-(3,4-dihydroisoquinolin-2(1H)-yl)-2-hydroxypropyl)-2-methyl-2-(quinolin-8-yloxy)propanamide], the IC50 is less than 100 nM.

Take `CS(=O)(=O)c1cccc(OCC(=O)NCC(O)CN2CCc3ccccc3C2)c1` (stereo not shown) [Compound 47]: the IC50 is less than 100 nM.

For the compound `O=C(COc1cccc2ccc(N3CCOCC3)nc12)NCC(O)CN1CCc2ccccc2C1` (stereo not shown) [Compound 48, N-(3-(3,4-dihydroisoquinolin-2(1H)-yl)-2-hydroxypropyl)-2-((2-morpholinoquinolin-8-yl)oxy)acetamide], the IC50 was less than 100 nM.

Take `O=C(COc1ccccc1N1CCOCC1)NCC(O)CN1CCc2ccccc2C1` (stereo not shown) [Compound 49, N-(3-(3,4-dihydroisoquinolin-2(1H)-yl)-2-hydroxypropyl)-2-(2-morpholinophenoxy)acetamide]: the IC50 was less than 100 nM.

Take `O=C(COc1ccccc1-c1cc[nH]n1)NCC(O)CN1CCc2ccccc2C1` (stereo not shown) [Compound 50, 2-(2-(1H-pyrazol-3-yl)phenoxy)-N-(3-(3,4-dihydroisoquinolin-2(1H)-yl)-2-hydroxypropyl)acetamide]: the IC50 was less than 100 nM.

Turning to `CS(=O)(=O)Nc1ccccc1OCC(=O)NCC(O)CN1CCc2ccccc2C1` (stereo not shown) [Compound 53], the IC50 was less than 100 nM.

`O=C(COc1cccc2c1CCCC2)NCC(O)CN1CCc2ccccc2C1` (stereo not shown) [Compound 64]: the IC50 is less than 100 nM.

As to `NS(=O)(=O)c1ccccc1OCC(=O)NCC(O)CN1CCc2ccccc2C1` (stereo not shown) [Compound 65], the IC50 is less than 100 nM.

For the compound `O=C(COc1cccc2ccccc12)NCC(O)CN1CCc2ccccc2C1` (stereo not shown) [Compound 66, N-(3-(3,4-dihydroisoquinolin-2(1H)-yl)-2-hydroxypropyl)-2-(naphthalen-1-yloxy)acetamide], the IC50 is less than 100 nM.

As for `O=C(COc1ccccc1-c1cc[nH]n1)NC[C@@H](O)CN1CCc2ccccc2C1` [Compound 67], the IC50 was less than 100 nM.

For `O=C(COc1ccccc1-c1cc[nH]n1)NC[C@H](O)CN1CCc2ccccc2C1` [Compound 68], the IC50 was less than 100 nM.

As for `C[C@@H](Oc1cccc2cccnc12)C(=O)NC[C@H](O)CN1CCc2ccccc2C1` [Compound 73, (R)—N—((S)-3-(3,4-dihydroisoquinolin-2(1H)-yl)-2-hydroxypropyl)-2-(quinolin-8-yloxy)propanamide], the half-maximal inhibitory concentration (IC50) was less than 100 nM.

On to `C[C@@H](Oc1cccc2cccnc12)C(=O)NC[C@@H](O)CN1CCc2ccccc2C1` [Compound 74], for which the IC50 was less than 100 nM.

`O=C(COc1cccc(CN2CCOCC2)c1)NCC(O)CN1CCc2ccccc2C1` (stereo not shown) [Compound 75]: the IC50 is less than 100 nM.

As for `C[C@H](Oc1cccc2cccnc12)C(=O)NC[C@H](O)CN1CCc2ccccc2C1` [Compound 76, (S)—N—((S)-3-(3,4-dihydroisoquinolin-2(1H)-yl)-2-hydroxypropyl)-2-(quinolin-8-yloxy)propanamide], the IC50 was less than 100 nM.

Take `O=C(COc1ccccc1N1CCOCC1)NC[C@H](O)CN1CCc2ccccc2C1` [Compound 77]: the IC50 is less than 100 nM.

Turning to `CN1C(=O)COc2cccc(OCC(=O)NCC(O)CN3CCc4ccccc4C3)c21` (stereo not shown) [Compound 80, N-(3-(3,4-Dihydroisoquinolin-2(1H)-yl)-2-hydroxypropyl)-2-(4-methyl-3-oxo-3,4-dihydro-2H-benzo[b][1,4]oxazin-5-yloxy)acetamide], the IC50 is less than 100 nM.

On to `CN1CCOc2cccc(OCC(=O)NCC(O)CN3CCc4ccccc4C3)c21` (stereo not shown) [Compound 81], for which the IC50 is less than 100 nM.

Consider `Cn1ncc2c(OCC(=O)NCC(O)CN3CCc4ccccc4C3)cccc21` (stereo not shown) [Compound 82], for which the 50% inhibitory concentration (IC50) is less than 100 nM.

Turning to `CN1CCN(c2ccccc2OCC(=O)NC[C@H](O)CN2CCc3ccccc3C2)CC1` [Compound 84], the IC50 was less than 100 nM.

For the compound `O=C(COc1ccccc1OCCN1CCOCC1)NC[C@H](O)CN1CCc2ccccc2C1` [Compound 86], the IC50 was less than 100 nM.

`CN(C)CCOc1ccccc1OCC(=O)NC[C@H](O)CN1CCc2ccccc2C1` [Compound 88]: the IC50 was less than 100 nM.

Regarding `CC(=O)N1CCN(c2ccccc2OCC(=O)NCC(O)CN2CCc3ccccc3C2)CC1` (stereo not shown) [Compound 90], the IC50 is less than 100 nM.

As to `O=C(COc1cccc2c1CCNC2)NCC(O)CN1CCc2ccccc2C1` (stereo not shown) [Compound 91], the IC50 was less than 100 nM.

As for `O=C(COc1cccc2nccnc12)NCC(O)CN1CCc2ccccc2C1` (stereo not shown) [Compound 92], the IC50 is less than 100 nM.

With `O=C(COc1cccc(NC2CCOCC2)c1)NCC(O)CN1CCc2ccccc2C1` (stereo not shown) [Compound 93], the IC50 was less than 100 nM.

With `O=C(COc1c(CN2CCOCC2)ccc2cccnc12)NC[C@H](O)CN1CCc2ccccc2C1` [Compound 94], the IC50 was less than 100 nM.

Take `O=C(COc1ccc2c(cnn2C2CCNC2)c1)NCC(O)CN1CCc2ccccc2C1` (stereo not shown) [Compound 95]: the IC50 is less than 100 nM.

For `CN1CCC(n2ncc3cc(OCC(=O)NCC(O)CN4CCc5ccccc5C4)ccc32)C1` (stereo not shown) [Compound 96], the IC50 is less than 100 nM.

For the compound `COc1ccc2cccc(OCC(=O)NC[C@@H](O)CN3CCc4ccccc4C3)c2n1` [Compound 98, (R)—N-(3-(3,4-dihydroisoquinolin-2(1H)-yl)-2-hydroxypropyl)-2-((2-methoxyquinolin-8-yl)oxy)acetamide], the IC50 was less than 100 nM.

Turning to `CN1CCc2c(cccc2OCC(=O)NCC(O)CN2CCc3ccccc3C2)C1` (stereo not shown) [Compound 99], the IC50 was less than 100 nM.

With `O=C(COc1cccc2c1OCCO2)NCC(O)CN1CCc2ccccc2C1` (stereo not shown) [Compound 100], the IC50 was less than 100 nM.

On to `CC(=O)N1CCc2c(cccc2OCC(=O)NCC(O)CN2CCc3ccccc3C2)C1` (stereo not shown) [Compound 101], for which the IC50 is less than 100 nM.

In the case of `CS(=O)(=O)N1CCc2c(cccc2OCC(=O)NCC(O)CN2CCc3ccccc3C2)C1` (stereo not shown) [Compound 102, N-(3-(3,4-dihydroisoquinolin-2(1H)-yl)-2-hydroxypropyl)-2-((2-(methylsulfonyl)-1,2,3,4-tetrahydroisoquinolin-5-yl)oxy)acetamide], the IC50 was less than 100 nM.
